Values quoted from earlier work as cited in US20080234197A1, “Method(s) of stabilizing and potentiating the actions and administration of brain-derived neurotrophic factor (BDNF)” (priority 2007, published 2008).
Where two headings read alike, the source gives them in different places.

What was measured:
syntaxin 3 = conditions: upon addition of fatty acid
ARH explants = conditions: 100 ng/ml for 72 hours, explants from neonatal mice, vs control
[1] = system: NPY and POMC neurons in the hypothalamus; conditions: ob/ob mice, after administration
db/db mice = conditions: once or twice per week (70 mg/kg/wk) for 3 weeks, vs control

CCCCC/C=C\C/C=C\CCCCCCCC(=O)O [LA, cis-linoleic acid]
intrinsic tyrosine fluorescence of syntaxin 3 (syntaxin 3): marked changes

CC/C=C\C/C=C\C/C=C\CCCCCCCC(=O)O [ALA, alpha-linolenic acid]
intrinsic tyrosine fluorescence of syntaxin 3 (syntaxin 3): marked changes

leptin: adiposity hormone produced by the white adipose tissue
induction of neurites from ARH explants (ARH explants): significant induction of neurites | time to normalization of synaptic density [1]: ≤ 6 h

CCCCCCCC/C=C\CCCCCCCC(=O)O [oleic acid]
intrinsic tyrosine fluorescence of syntaxin 3 (syntaxin 3): ineffective

CN1CCCC1c1cccnc1 (centres unmarked) [nicotine]
protection against arachidonic acid-induced apoptosis of spinal cord neurons (spinal cord neurons): fully protected | prevention of arachidonic acid-induced decrease of BDNF expression (spinal cord neurons; pretreatment with 10-microM): fully prevented

CCCCC/C=C\C/C=C\C/C=C\C/C=C\CCCC(=O)O [AA, arachidonic acid]
dopamine uptake (glioma cells; 20-160 microM, pre-incubated 15-30 min): stimulated | dopamine uptake (glioma cells; 160 microM, longer pre-exposures 45-60 min): inhibited | expression of BDNF (spinal cord neurons; 2-hour exposure, spinal cord neurons): markedly diminished | intrinsic tyrosine fluorescence of syntaxin 3 (syntaxin 3): marked changes

B1: BDNF: brain-derived neurotrophic factor, a neurotrophin protein (protein, UniProt P23560 19-247, looked up)
Neurotrophic factor BDNF …: APMKEANIRGQGGLAYPGVRTHGTLESVNGPKAGSRGLTSLADTFEHVIEELLDEDQKVRPNEENNKDADLYTSRVMLSSQVPLEPPLLFLLEEYKNYLDAANMSMRVRRHSDPARRGELSVCDSISEWVTAADKKTAVDMSGGTVTVLEKVPVSKGQLKQYFYETKCNPMGYTKEGCRGIDKRHWNSQCRTTQSYVRALTMDSKKRIGWRFIRIDTSCVCTLTIKRGR
blood glucose concentrations (db/db mice): significantly reduced | hemoglobin A1c (HbA1c) (db/db mice): significantly reduced | protection against arachidonic acid-induced apoptosis of spinal cord neurons (spinal cord neurons): fully protected
